Test results as given in PubChem BioAssay (NCI).
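Values below derive from 48-hour exposures of cells grown in 96-well plates, with endpoints linearly interpolated between the two concentrations bracketing the appropriate inhibition level. Definition used: TGI = concentration required for complete inhibition of growth.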 *1 amine or outer side, *2 acyl side, *3 side chain or, on linkers, in order; H or OH if unused. Where a SMILES comes first, the peptide text is derived from it. Bridges are numbered along the chain shown (N, C = ends). Roman numbers before positions name the chains, in order. [ ]: non-standard residue; d: D form. Actinocin(9to1) = Cc1c2oc3c(C)ccc(C(=O)[*:1])c3nc-2c(C(=O)[*:2])c(N)c1=O; NMeV = CN[CH](C(=O)O)C(C)C; Sar = CNCC(=O)O

What was measured:
Assay in all cases: NCI tumour cell line growth inhibition, 48 h
[1] = tested on: EKVX NSCLC
[2] = tested on: RXF 393 renal
[3] = tested on: HL-60(TB) leukemia
[4] = tested on: LOX IMVI melanoma
[5] = tested on: NCI-H522 lung
[6] = tested on: OVCAR-5 ovarian
[7] = tested on: SNB-19 CNS
[8] = tested on: RPMI-8226 leukemia
[9] = tested on: COLO 205 colon
[10] = tested on: U251 CNS

Structure (SMILES) | TGI [1] | TGI [2] | TGI [3] | TGI [4] | TGI [5] | TGI [6] | TGI [7] | TGI [8] | TGI [9] | TGI [10]
C=CCNC(=O)NC1=CSC2=NC(=O)C3(NN12)c1ccccc1-c1ccccc13 | > 10 µM | > 10 µM | > 10 µM | > 10 µM | > 10 µM | > 10 µM | > 10 µM | > 10 µM | > 10 µM | 
O=c1c2cc(I)ccc2nc(Sc2ncccc2[N+](=O)[O-])n1Cc1ccccc1 | 71.2 µM | > 100 µM | 2.02 µM | > 100 µM | 78 µM | > 100 µM | > 100 µM | > 100 µM | > 100 µM | > 100 µM
O=C1C=C(Br)c2c(Br)sc(Br)c21 | 37.3 µM | 25.7 µM | 29.2 µM | 5.77 µM | 3.99 µM | 41.3 µM | 35.7 µM | > 100 µM | 15.9 µM | 41.3 µM
CC(C)(C)C1(COC(=O)c2ccc(N)cc2)COC1 | > 100 µM | > 100 µM | > 100 µM | > 100 µM | > 100 µM | > 100 µM | > 100 µM | > 100 µM | > 100 µM | > 100 µM
CC[C@H](C)[C@H]1NC(=O)[C@@H](NC(=O)[C@@H](CC(C)C)N(C)CC2CCCN2C(=O)C(C)=O)[C@@H](C)OC(=O)[C@H](Cc2ccc(OC)cc2)N(C)C(=O)C2CCCN2C(=O)[C@H](CC(C)C)NC(=O)[C@@H](C)C(=O)[C@H](C(C)C)OC(=O)C[C@@H]1O (stereo not given in full) | 0.0509 µM | 0.00299 µM | 0.021 µM | 0.00861 µM | 0.0523 µM | 0.014 µM | 0.0115 µM | 0.00697 µM | 0.00879 µM | 0.00534 µM
C=CCSC1=N/C(=C\c2ccccc2)C(=O)N1CC=C | 77 µM | 60.6 µM | 18.7 µM | > 81.3 µM | > 100 µM | > 100 µM | > 100 µM | > 62.3 µM | > 100 µM | > 100 µM
O=c1cc(N2CCCC2)[nH]c(=O)n1-c1cccc(C(F)(F)F)c1 | > 100 µM | > 100 µM | > 100 µM | > 100 µM | > 100 µM | > 100 µM | > 100 µM | > 100 µM | > 100 µM | > 100 µM
CN(NC(=O)CCCl)C1=NCCCCN1 | > 100 µM | > 100 µM | > 100 µM | > 100 µM | > 100 µM | > 100 µM | > 100 µM | > 100 µM | > 100 µM | > 100 µM
Cc1c2oc3c(C)ccc(C(=O)NC4C(=O)NC(C(C)O)C(=O)N5CCCC5C(=O)N(C)CC(=O)N(C)C(C(C)C)C(=O)OC4C)c3nc-2c(C(=O)NC2C(=O)NC(C(C)O)C(=O)N3CCCC3C(=O)N(C)CC(=O)N(C)C(C(C)C)C(=O)OC2C)c(N)c1=O (stereo not given) (I: TTP[Sar][NMeV] / II: TTP[Sar][NMeV]; ester I:1-I:C, II:1-II:C; linker I:N-II:N via Actinocin(9to1); configuration not given here) | > 42.2 µM | 1.29 µM | 5.12 µM | 0.984 µM | 1.14 µM | 44.2 µM | > 100 µM | 1.55 µM | 0.762 µM | > 100 µM
CN(C)Cc1cc(O)c(O)c(CN(C)C)c1 | 71.5 µM | > 100 µM | 92 µM | > 100 µM | > 100 µM | > 100 µM | > 100 µM | > 100 µM | > 100 µM | > 100 µM
O=C1c2c(nc3ccccc3c2-c2ccccc2)CN1Nc1ccccn1 | > 100 µM | > 100 µM | > 100 µM | > 100 µM | > 100 µM | > 100 µM | > 100 µM | > 100 µM | > 100 µM | > 100 µM
[N-]=[N+]=CC(=O)OCC1SCCCS1 | > 100 µM | > 100 µM | > 100 µM | > 100 µM | > 100 µM | > 100 µM | > 100 µM | > 100 µM | > 100 µM | > 100 µM
C(=C\c1ccccc1)/C=N/c1nc2cc3sc(/N=C/C=C/c4ccccc4)nc3cc2s1 | > 100 µM | > 100 µM | > 100 µM | > 100 µM | > 100 µM | > 100 µM | > 100 µM | > 100 µM | > 25.8 µM | > 100 µM
COc1ccc(N=N/C(=N/NC(=O)c2ccccc2)c2ccc(N(CCC#N)CCC#N)cc2C)cc1 | > 100 µM | > 100 µM | > 100 µM |  | 36.1 µM | > 100 µM | > 100 µM | > 100 µM | > 100 µM | > 100 µM
N#Cc1c(N2CCCC2)ncn(Cc2ccccc2)c1=O | > 100 µM | > 100 µM | > 100 µM | > 100 µM | > 100 µM | > 100 µM | > 100 µM | > 100 µM | > 100 µM | > 100 µM
NC(=S)Nc1[nH]c(=S)nc2c1SC1=N/C(=C\c3ccco3)C(=O)N12 | > 100 µM | > 100 µM | 46.8 µM | > 100 µM | > 100 µM | > 100 µM | > 100 µM | > 90.6 µM | > 100 µM | > 100 µM
C=C1C(=O)OCC2C(C(=O)O)=CC3C(C)C(C)=CC123 (stereo not given) | 62.6 µM | 17.7 µM | 26 µM | 27.9 µM | 8.18 µM | 66.3 µM | 40.2 µM | 26.8 µM | 32.9 µM | 38.6 µM
COc1cc(/C=C2\N=C(c3ccccc3)N(c3nc4c(OC)ccc(OC)c4s3)C2=O)cc(OC)c1OC | > 100 µM | > 100 µM | > 100 µM | > 100 µM | > 100 µM | > 100 µM | > 100 µM | > 100 µM | > 100 µM | > 100 µM
CNC(=O)c1cc(NC(=O)N(CCC#N)CCN(C(=O)N[C@@H](Cc2ccccc2)C(=O)N[C@@H](CC(C)C)C(=O)NC)c2ccccc2)ccc1OC | > 100 µM | 99.4 µM | > 100 µM | > 100 µM |  | > 100 µM | > 100 µM | > 88.3 µM | > 100 µM | > 100 µM
O=C1/C(=C/c2ccccc2[N+](=O)[O-])N=C(c2ccccc2)N1C1Nc2cc3c(cc2S1)NC(N1C(=O)/C(=C/c2ccccc2[N+](=O)[O-])N=C1c1ccccc1)S3 (stereo not given) | > 100 µM | > 100 µM | 96.2 µM | > 100 µM | 77.9 µM | > 100 µM |  | 49.7 µM |  | > 100 µM
